For four compounds, EC50 and activity results are on record in publication PMC7057948, “A genome-wide approach for identification and characterisation of metabolite-inducible systems” (Nature Communications, 2020).

Assay [1] has as its target T1, NahR (Cupriavidus necator, UniProt G0EUZ9).
T1 construct: native full-length gene, divergent to operon starting at H16_RS08125; reporter plasmid pEH042 (plasmid assigned by list order); not the P. putida NahR
T1 sequence (G0EUZ9 1-300): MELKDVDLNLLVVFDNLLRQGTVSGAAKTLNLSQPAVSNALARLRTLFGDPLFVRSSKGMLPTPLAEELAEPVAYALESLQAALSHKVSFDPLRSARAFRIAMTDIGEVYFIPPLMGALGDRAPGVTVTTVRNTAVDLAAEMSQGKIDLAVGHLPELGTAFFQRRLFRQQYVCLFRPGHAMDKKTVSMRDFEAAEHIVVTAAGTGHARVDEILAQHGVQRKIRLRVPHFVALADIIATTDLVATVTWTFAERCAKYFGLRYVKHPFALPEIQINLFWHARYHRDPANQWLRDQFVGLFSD
As to the kind of experiment: RFP reporter dose-response in C. necator H16, Hill fit. In kind it is cell-based. Particulars: read-out: Km^b.

Assay [2] concerns the target T2, BenM (Cupriavidus necator, UniProt Q0KAA5).
T2 construct: native full-length gene, divergent to operon starting at H16_RS09790; reporter plasmid pEH148 (plasmid assigned by list order)
T2 sequence (Q0KAA5 1-305): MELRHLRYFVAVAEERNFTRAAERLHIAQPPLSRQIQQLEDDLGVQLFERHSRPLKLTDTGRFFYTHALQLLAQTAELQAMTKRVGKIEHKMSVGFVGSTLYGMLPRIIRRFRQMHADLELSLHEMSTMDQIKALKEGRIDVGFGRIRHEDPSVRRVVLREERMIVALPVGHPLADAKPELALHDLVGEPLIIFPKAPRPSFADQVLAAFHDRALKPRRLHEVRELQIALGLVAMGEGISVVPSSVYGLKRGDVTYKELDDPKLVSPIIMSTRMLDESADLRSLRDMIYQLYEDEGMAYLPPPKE
The description is as above. In kind it is cell-based. Particulars: read-out: Km^b.
Text: RFP reporter dose-response in C. necator H16, Hill fit on BenM

Assay [3] deals with T3, FdsR (Cupriavidus necator, UniProt Q0KDY4).
T3 construct: native full-length gene, divergent to operon starting at H16_RS03165; reporter plasmid pEH134 (plasmid assigned by list order)
T3 sequence (Q0KDY4 1-364): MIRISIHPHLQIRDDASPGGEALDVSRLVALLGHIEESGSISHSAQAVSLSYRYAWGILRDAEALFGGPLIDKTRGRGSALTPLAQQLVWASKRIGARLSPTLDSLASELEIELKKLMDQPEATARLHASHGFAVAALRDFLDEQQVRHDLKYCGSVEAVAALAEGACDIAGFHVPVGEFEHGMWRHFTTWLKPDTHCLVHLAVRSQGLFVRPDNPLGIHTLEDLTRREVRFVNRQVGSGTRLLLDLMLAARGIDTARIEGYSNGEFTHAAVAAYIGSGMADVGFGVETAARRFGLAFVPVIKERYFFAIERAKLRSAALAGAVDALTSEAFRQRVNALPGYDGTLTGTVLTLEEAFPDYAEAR
Nature of the assay: cell-based. Details: RFP reporter induction by transcription factor biosensor, single time-point fluorescence in LB, relative to primary effector. The settings on record: Escherichia coli TOP10; relative to primary effector, E. coli, LB; read-out: % activation. From the text:
(§1) TRs often recognise molecules that are structurally similar to their primary effectors. For example, isopropyl β-D-1-thiogalactopyranoside is a commonly used structural analogue of allolactose, employed to control the expression of genes regulated by LacI. Here, the TR’s specificity was investigated to identify previously uncharacterised ligand–TR interactions and consequently extend the biosensor application to the detection of structurally similar or metabolically related compounds. To do so, the library of 21 native and heterologous inducible systems was screened against 46 compounds using an integrated robotic platform, as described in the previous section. […] Similarly to the former orthogonality screen (Fig. 6a), it should be noted that activation of reporter gene expression by the extracellularly added compounds likely indicates a structural resemblance to the primary ligand, a metabolic relationship or a combination thereof. To shed light on their cause of system activation, cultures of E. coli carrying the functional formate-, [compound left out]-, benzoate-, 3,4-dihydroxybenzoate-, acetoin- and β-alanine-inducible systems, active in this host organism, were evaluated for the same cross-reactivity (Supplementary Table 5).  Fig. 3 C. necator native systems mediate controllable gene expression in E. coli and P. putida. Single time-point fluorescence measurements of a, b E. coli and c, d P. putida carrying the C. necator-inducible gene expression systems composed of TR and promoter a, c or ‘promoter only’ version b, d. The plasmids harbouring the individual system– or promoter–reporter gene constructs are indicated. RFP fluorescence output was determined in the absence of inducer (light purple and light blue) and 6 h after extracellular supplementation with the corresponding primary effector to a final concentration of 5 mM (dark purple and dark blue). Data are mean ± SD, n = 3, *p < 0.05, **p < 0.01, ***p ≤ 0.001, ****p ≤ 0.0001, unpaired two-tailed t-test. Source data are provided as a Source Data file. All strains used in this study are listed in Supplementary Table 7. E. coli TOP10 (Life Technologies) was used for cloning and plasmid propagation. For single time-point fluorescence measurements and flow cytometric analyses, bacterial strains were propagated in Luria-Bertani (LB) medium. To determine the dose–responses and to evaluate inducer TR cross-reactivity, C. necator was cultivated in MM containing 1 g/L NH4Cl, 9 g/L Na2HPO4·12H2O, 1.5 g/L KH2PO4, 0.2 g/L MgSO4·7H2O, 0.02 g/L CaCl2·2H2O and 0.0012 g/L (NH4)5[Fe(C6H4O7)2] with 1 mL/L trace element solution SL7 (1.3 mL/L 25% (w/v) HCl, 0.07 g/L ZnCl2, 0.1 g/L MnCl2·4H2O, 0.062 g/L H3BO3, 0.190 g/L CoCl2·6H2O, 0.017 g/L CuCl2·2H2O, 0.024 g/L NiCl2·6H2O and 0.036 g/L Na2MoO4·2H2O) supplemented with 0.4% (w/v) sodium gluconate. If required, antibiotics were added to the growth medium at the following concentrations: 12.5 µg/mL tetracycline or 25 µg/mL chloramphenicol for E. coli, 50 µg/mL chloramphenicol for C. necator and 25 µg/mL tetracycline for P. putida. For solid media preparation, 15 g/L agar was added.

Assay [4] concerns the target T2, BenM. As to the kind of experiment: cell-based. The settings on record: Escherichia coli TOP10; relative to primary effector, E. coli, LB; read-out: % activation. Details: RFP reporter induction by transcription factor biosensor, single time-point fluorescence in LB, relative to primary effector.
Text: as §1

For assay [5], the system named is BenM. Nature of the assay: cells. Details: species or system Cupriavidus necator H16; RFP reporter induction by transcription factor biosensor, fluorescence normalised to cell density, relative to primary effector. The settings on record: 6 h; relative to primary effector, C. necator, MM; read-out: % activation. As for the experimental part:
(§2) To screen the 441 combinations of inducer and biosensor for cross-reactivity, we employed an automated platform (see Methods section). Strains of C. necator harbouring the inducible systems were grown in MM and transferred to a 96-well microtiter plate format. After the inducers had been extracellularly added, cells were cultured for 6 h before RFP fluorescence and cell density were measured. […] The remaining six inducible systems were activated by one or more metabolites other than their cognate inducers. This cross-reactivity may be the result of either structural resemblance, a metabolic relationship or a combination thereof. For example, L-phenylalanine is converted into L-tyrosine by the phenylalanine 4-monooxygenase PhhA (H16_RS18365). Therefore, activation of the L-tyrosine-inducible system by L-phenylalanine is more likely to be due to biological conversion of the added compound into the primary effector rather than direct interaction of L-phenylalanine with HpdA. However, since the difference between the two molecules lies in a singly hydroxyl-group, an induction by structural resemblance cannot be entirely ruled out. The same applies to phenylglyoxylate that activated the benzoate-inducible system. Phenylglyoxylate is converted by C. necator into benzoate via a two-step reaction with benzaldehyde as intermediate compound. During the first reaction, carbon dioxide is generated that may also explain induction of the formate-inducible system by the structurally dissimilar phenylglyoxylate. Since carbon dioxide can subsequently be converted into formate, it is rational to postulate that the FdsR/PH16_RS03165-inducible system is activated in this case by its primary inducer. In addition to phenylglyoxylate, the benzoate-inducible system was activated by extracellular supplementation with cyclohexanecarboxylate and cumate. Cyclohexanecarboxylate shares both a structural resemblance to benzoate and downstream  Fig. 6 Orthogonality of inducible systems. a Cross-reactivity of a set of 21 inducible systems and their corresponding primary inducers. The heat map illustrates induction of reporter gene expression in the presence of the metabolite (in %) relative to the induction mediated by the corresponding primary effector. Measurements were taken 6 h after supplementation with inducer at a final concentration of 5 mM. Data are mean, n = 4. Source data are provided as a Source Data file. b Fluorescence output of individual cells of C. necator carrying pEH263 measured by flow cytometry. The vector pEH263 contains the 3,4-dihydroxybenzoate- and [compound left out]-inducible systems controlling expression of rfp and egfp, respectively. Fluorescence was determined in the absence of inducer (orange), in the presence of 3,4-dihydroxybenzoate (blue), [compound left out] (green), and both 3,4-dihydroxybenzoate and [compound left out] (purple). Effector concentrations correspond to their respective Km’s and fluorescence was measured 2 h after inducer addition.

For assay [6], the system named is FdsR. As to the kind of experiment: cells. The settings on record: 6 h; relative to primary effector, C. necator, MM; read-out: % activation. Details: species or system Cupriavidus necator H16; RFP reporter induction by transcription factor biosensor, fluorescence normalised to cell density, relative to primary effector. As for the experimental part: as §2
Assay [7] concerns T4, PhgR.
T4 construct: native full-length gene, divergent to operon starting at H16_RS05530; reporter plasmid pEH155 (plasmid assigned by list order)
As to the kind of experiment: RFP reporter dose-response in C. necator H16, Hill fit. In kind it is cell-based, Cupriavidus necator. Particulars: inducer concentration for half-maximal activation; extracellular inducer, minimal medium, 30 °C, 80 min; whole cells with chromosomal regulator copy; read-out: Km^b.

The subject of assay [8] is T5, TtdR.
T5 construct: native full-length gene, divergent to operon starting at H16_RS10665; reporter plasmid pEH083 (plasmid assigned by list order)
Described as above. In kind it is cell-based, Cupriavidus necator. Particulars: inducer concentration for half-maximal activation; extracellular inducer, minimal medium, 30 °C, 80 min; whole cells with chromosomal regulator copy; read-out: Km^b.
Text: RFP reporter dose-response in C. necator H16, Hill fit on TtdR

Where a name gives a salt, the structure may show the parent alone.

For `O=C(O)c1ccccc1O` [compound 5, Salicylate], the EC50 in assay [1] came to 2.12 ± 0.49 µM.

Turning to `O=C(O)c1ccccc1` [compound 6, Benzoate], the EC50 in assay [2] was 12.6 ± 0.8 µM.

On to `O=C(O)C(=O)c1ccccc1` [compound 4, Phenylglyoxylate], for which the activity at 5000 µM in assay [3] was 0%; in assay [4], 0.19%; in assay [5] it was 17%; in assay [6] it was 52%. For the same compound, the EC50 in assay [7] worked out at 595 ± 133 µM.

In the case of `O=C(O)C(O)C(O)C(=O)O` (centres unmarked) [compound 7, Tartrate], in assay [8], the EC50 amounted to 61500 ± 22900 µM.
